Key:
BCR-ABL [1] = biological target: T1, BCR-ABL (Homo sapiens, UniProt P00519); experiment: Western-blot detection of BCR-ABL protein degradation (FIGS. 1-15); format: cell-based
c-ABL [2] = biological target: T2, c-ABL (Homo sapiens, UniProt P00519); experiment: Western-blot detection of c-ABL protein degradation (FIGS. 1-15); format: cell-based
c-ABL [3] = biological target: T2, c-ABL; experiment: Western-blot degradation of c-ABL in K562 cells; settings: 24 h
BCR-ABL [4] = biological target: T1, BCR-ABL; experiment: Western-blot half-degradation concentration (DC50) / degradation of BCR-ABL in K562 cells; settings: 24 h
ER protein = biological target: T3, ER protein (Homo sapiens, UniProt P03372); experiment: Western blot half degradation concentration (DC50) of ER protein in T-47D cells; format: cell-based; settings: 24 h, read-out: DC50 (nM)/T-47D cell line
T3 construct: detect the expression of ER protein in T-47D cells; endogenous in cells; host or cells: T-47D
T3 sequence (P03372 1-595): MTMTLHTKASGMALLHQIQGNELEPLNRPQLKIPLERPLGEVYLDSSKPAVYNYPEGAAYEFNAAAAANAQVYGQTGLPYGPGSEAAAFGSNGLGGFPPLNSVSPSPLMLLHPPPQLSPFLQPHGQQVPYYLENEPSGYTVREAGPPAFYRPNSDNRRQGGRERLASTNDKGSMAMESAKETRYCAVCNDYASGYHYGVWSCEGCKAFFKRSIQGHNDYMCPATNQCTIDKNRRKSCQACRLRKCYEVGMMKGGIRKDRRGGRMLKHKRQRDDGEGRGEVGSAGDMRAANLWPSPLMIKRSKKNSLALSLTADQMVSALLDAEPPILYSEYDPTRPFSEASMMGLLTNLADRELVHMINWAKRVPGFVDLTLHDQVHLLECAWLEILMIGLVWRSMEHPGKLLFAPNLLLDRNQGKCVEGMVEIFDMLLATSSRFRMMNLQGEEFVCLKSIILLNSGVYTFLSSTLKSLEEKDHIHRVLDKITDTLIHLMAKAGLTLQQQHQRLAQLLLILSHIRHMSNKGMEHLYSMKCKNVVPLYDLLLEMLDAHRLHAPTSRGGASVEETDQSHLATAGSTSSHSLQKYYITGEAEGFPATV
Protocol: ER positive cells T-47D cells (human breast cancer cells) were purchased from the Cell Bank of the Chinese Academy of Sciences;
The cells used in this present disclosure were cultured in a 37° C. incubator containing 5% CO2. The complete cell culture medium was RPMI 1640 medium with 10% fetal bovine serum, and the final concentrations of penicillin and streptomycin were 100 U/mL, respectively. All cells were tested negative for mycoplasma with mycoplasma detection kit before the experiment.
Western Blot Determination of the Half Degradation Concentration (DC50) of the PROTAD Compounds on Target Proteins
The PROTAD compounds of the present disclosure were tested at 5 concentration of 1 nM, 10 nM, 50 nM, 100 nM, 500 nM, respectively, or 5 concentration gradients of 0.04 nM, 0.2 nM, 1 nM, 10 nM, 50 nM, and DMSO and commercial parent inhibitor groups (tamoxifen, toremifene) were set as negative and positive controls at the same time. After the drug treatment for 24 h, cells were washed twice with PBS, and lyzed by adding 50 μL of SDS lysate to each well for lysis on ice for 5 min.

T2 sequence (P00519 whole entry): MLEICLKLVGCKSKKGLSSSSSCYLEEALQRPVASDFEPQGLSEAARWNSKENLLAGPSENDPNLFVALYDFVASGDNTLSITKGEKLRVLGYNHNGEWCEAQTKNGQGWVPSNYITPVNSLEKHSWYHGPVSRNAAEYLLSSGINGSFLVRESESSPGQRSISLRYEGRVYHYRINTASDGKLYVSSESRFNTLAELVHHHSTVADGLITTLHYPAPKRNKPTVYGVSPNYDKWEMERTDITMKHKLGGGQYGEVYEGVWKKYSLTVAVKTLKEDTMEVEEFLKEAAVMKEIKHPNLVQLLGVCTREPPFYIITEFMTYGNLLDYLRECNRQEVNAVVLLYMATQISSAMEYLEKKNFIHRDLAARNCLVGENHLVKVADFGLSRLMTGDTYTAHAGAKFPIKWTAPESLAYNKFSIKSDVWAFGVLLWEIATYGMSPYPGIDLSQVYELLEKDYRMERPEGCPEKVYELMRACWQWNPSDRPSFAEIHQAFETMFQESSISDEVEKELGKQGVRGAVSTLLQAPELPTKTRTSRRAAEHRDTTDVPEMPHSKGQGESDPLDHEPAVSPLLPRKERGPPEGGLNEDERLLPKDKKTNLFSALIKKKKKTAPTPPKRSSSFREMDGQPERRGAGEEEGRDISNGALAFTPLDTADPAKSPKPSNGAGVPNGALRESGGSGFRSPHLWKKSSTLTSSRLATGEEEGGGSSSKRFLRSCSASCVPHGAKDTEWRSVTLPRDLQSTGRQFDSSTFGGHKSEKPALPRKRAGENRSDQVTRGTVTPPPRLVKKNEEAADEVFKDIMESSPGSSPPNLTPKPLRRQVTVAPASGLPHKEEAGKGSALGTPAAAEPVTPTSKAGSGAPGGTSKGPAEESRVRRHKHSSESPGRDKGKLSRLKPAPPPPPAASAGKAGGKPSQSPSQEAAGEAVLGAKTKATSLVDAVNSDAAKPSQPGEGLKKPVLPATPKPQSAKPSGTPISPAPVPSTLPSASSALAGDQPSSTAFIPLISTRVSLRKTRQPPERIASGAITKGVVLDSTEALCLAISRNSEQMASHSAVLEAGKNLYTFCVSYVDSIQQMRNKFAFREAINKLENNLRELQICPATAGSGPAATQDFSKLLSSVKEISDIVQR
T1 sequence (P00519 with tags, fused parts or gaps): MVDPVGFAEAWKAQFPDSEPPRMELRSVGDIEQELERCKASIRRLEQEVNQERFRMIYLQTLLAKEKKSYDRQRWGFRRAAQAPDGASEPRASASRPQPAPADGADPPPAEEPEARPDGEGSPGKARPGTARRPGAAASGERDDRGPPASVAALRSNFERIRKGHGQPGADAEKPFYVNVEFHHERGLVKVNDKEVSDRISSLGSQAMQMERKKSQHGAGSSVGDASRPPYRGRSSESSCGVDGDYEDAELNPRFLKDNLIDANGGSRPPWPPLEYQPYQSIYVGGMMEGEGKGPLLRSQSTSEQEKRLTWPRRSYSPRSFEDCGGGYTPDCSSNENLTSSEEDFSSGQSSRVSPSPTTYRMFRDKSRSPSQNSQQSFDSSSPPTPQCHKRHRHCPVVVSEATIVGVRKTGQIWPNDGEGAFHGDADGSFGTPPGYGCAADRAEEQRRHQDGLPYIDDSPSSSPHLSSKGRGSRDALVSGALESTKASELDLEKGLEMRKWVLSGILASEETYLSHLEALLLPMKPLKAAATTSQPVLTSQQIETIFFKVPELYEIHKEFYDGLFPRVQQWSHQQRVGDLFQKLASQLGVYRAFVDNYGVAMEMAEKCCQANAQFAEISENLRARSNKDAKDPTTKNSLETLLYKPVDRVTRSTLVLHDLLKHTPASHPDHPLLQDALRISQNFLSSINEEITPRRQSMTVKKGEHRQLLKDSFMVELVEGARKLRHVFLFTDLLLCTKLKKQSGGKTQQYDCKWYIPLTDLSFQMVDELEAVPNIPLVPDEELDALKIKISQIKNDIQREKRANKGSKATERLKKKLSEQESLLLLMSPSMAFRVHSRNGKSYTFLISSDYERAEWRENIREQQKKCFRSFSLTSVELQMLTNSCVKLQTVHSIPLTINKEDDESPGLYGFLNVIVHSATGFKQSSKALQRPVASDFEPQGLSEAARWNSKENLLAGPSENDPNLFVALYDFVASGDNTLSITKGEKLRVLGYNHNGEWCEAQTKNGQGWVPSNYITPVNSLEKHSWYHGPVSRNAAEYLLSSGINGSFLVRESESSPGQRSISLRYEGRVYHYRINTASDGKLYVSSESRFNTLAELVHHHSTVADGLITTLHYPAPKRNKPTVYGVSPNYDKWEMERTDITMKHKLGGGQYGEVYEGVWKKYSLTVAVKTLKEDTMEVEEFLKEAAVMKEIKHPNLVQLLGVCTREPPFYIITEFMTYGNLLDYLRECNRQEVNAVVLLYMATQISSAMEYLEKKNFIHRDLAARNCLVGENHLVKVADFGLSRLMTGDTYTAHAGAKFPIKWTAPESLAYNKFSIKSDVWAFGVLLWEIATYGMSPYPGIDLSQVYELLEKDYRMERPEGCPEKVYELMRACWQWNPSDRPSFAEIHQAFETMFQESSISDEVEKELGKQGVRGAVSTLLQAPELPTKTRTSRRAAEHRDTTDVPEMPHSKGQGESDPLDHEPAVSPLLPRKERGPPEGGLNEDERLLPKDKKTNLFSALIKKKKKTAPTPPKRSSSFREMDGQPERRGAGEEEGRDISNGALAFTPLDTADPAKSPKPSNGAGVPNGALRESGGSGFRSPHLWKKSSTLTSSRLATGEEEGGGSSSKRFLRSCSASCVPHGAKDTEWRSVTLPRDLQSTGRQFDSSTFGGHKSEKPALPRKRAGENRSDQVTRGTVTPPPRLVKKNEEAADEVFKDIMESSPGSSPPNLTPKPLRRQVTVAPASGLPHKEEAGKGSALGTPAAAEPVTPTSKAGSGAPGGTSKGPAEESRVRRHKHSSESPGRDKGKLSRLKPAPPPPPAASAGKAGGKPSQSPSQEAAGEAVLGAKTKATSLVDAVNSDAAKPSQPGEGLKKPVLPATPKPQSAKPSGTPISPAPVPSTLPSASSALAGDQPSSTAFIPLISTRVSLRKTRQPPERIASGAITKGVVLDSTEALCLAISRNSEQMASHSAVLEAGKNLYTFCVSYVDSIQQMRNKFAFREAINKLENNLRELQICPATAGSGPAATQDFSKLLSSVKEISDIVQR

Row | ability to degrade BCR-ABL protein (Western-blot, in words) (BCR-ABL [1]) | ability to degrade c-ABL protein (Western-blot, in words) (c-ABL [2]) | DC50 (ER protein) [nM] | Structure (SMILES) | degradation of c-ABL protein (Western-blot) (c-ABL [3]) | degradation of BCR-ABL protein (Western-blot) (BCR-ABL [4])
1 | significantly weaker ability to degrade | significantly weaker ability to degrade | – | Cc1nc(Nc2ncc(C(=O)Nc3c(C)cccc3Cl)s2)cc(N2CCN(C(=O)CNc3cccc4c3C(=O)N(C3CCC(=O)NC3=O)C4=O)CC2)n1 (stereo not drawn) [SIAIS151072, N-(2-chloro-6-methylphenyl)-2-((6-(4-((2-(2,6-dioxopiperidin-3-yl)-1,3-dioxoisoindolin-4-yl)aminoacetyl)piperazin-1-yl)-2-methylpyrimidin-4-yl)amino)thiazole-5-carboxamide] | significantly weaker ability to degrade BCR-ABL and c-ABL proteins | significantly weaker ability to degrade BCR-ABL and c-ABL proteins
2 | – | – | 10 | CCC(=C(c1ccc(O)cc1)c1ccc(OCCNC(=O)CCCCCCSc2cccc3c2C(=O)N(C2CCC(=O)NC2=O)C3=O)cc1)c1ccc(O)cc1 (stereo not drawn) [SIAIS208170, N-(2-(4-(1,2-bis(4-hydroxyphenyl)but-1-en-1-yl)phenoxy)ethyl)-7-((2-(2,6-dioxopiperidin-3-yl)-1,3-dioxoisoindolin-4-yl)thio)heptanamide] | – | –
3 | – | – | 10 | CCC(=C(c1ccc(O)cc1)c1ccc(OCCNC(=O)CCCCCCSc2cccc3c2CN(C2CCC(=O)NC2=O)C3=O)cc1)c1ccc(O)cc1 (stereo not drawn) [SIAIS208171, N-(2-(4-(1,2-bis(4-hydroxyphenyl)but-1-en-1-yl)phenoxy)ethyl)-7-((2-(2,6-dioxopiperidin-3-yl)-1-oxoisoindolin-4-yl)thio)heptanamide] | – | –
